Literature values in US6829374B2, “Methods for measuring iris color over time” (Glaucoma Research, Inc., priority 2001, dated 2004).

Test system: iris color
Settings: ocular medication, recent studies

Row | change in iris color | Compound
1 | change in iris color | CCCCCCCC(=O)CC[C@@H]1[C@@H](C/C=C\CCCC(=O)O)[C@@H](O)C[C@H]1O [unoprostone]
2 | change in iris color | CC(C)OC(=O)CCC/C=C\C[C@@H]1[C@@H](CC[C@@H](O)CCc2ccccc2)[C@H](O)C[C@@H]1O [latanoprost]
